Reference: US12239645B2, “Targeted dosing for the treatment of complement mediated disorders” (Achillion Pharmaceuticals, Inc., priority 2018, dated 2025)
≈ marks a conversion by molar mass, not a printed value.

Legend:
[1] = Compound 2 administered to humans (diurnal metabolic pattern); assay type: in vivo, human
Excerpt: This could not have been predicted prior to human administration of the drug.

[2] = tested on: complement alternative pathway (AP) activity; assay: MAD study: ex vivo serum AP hemolysis activity and PK-PD analysis; assay type: in vivo, human; conditions: Homo sapiens; sigmoidal model, multiple ascending dose, ex-vivo AP hemolysis, FIG. 12; read-out: modeled IC90 drug plasma concentration (90% inhibition level)
Method: Ex vivo serum AP hemolysis assays were conducted in 96-well microtiter plates divided into two parts, one for hemolysis and the other for serum background color subtraction. Briefly, a suspension of rabbit red blood cells (RBCs) was centrifuged at 800×g at 4° C. for 3 minutes and the supernatant was removed to get rid of the RBC debris. The RBC cell pellet was re-suspended gently with pre-chilled gelatin veronal buffer (GVB0) containing 10 mM MgEGTA to a density of 5×10^8 cells/mL. Other controls including buffer, spontaneous rabbit RBC lysis, 100% RBC lysis (in water), and normal serum control were set up alongside the test samples as well. Serum was placed in a 37° C. water-bath until mostly thawed and immediately transferred to ice bath. 20% serum was prepared with GVB0-MgEGTA buffer and kept at ice bath before testing. Reactions were carried out in a 96 well plate by mixing 50 μl of 20% serum with equal volume of GVB0-MgEGTA buffer and then quickly adding 20 μl of RBC suspension. The plate was shaken on a microtiter plate shaker for 5 seconds and then incubated at 37° C. for 30 minutes. Halfway during the incubation period, the plate was shaken for another 5 seconds as described above. At the end of the incubation, the plate was centrifuged at 800×g at 4° C. for 3 minutes to pellet the un-lysed rabbit RBCs. 80 μl of supernatant was removed carefully from all wells and transferred to a clear flat-bottom microtiter plate for the measurement of optical absorbance at 405 nm (A405) in a Molecular Devices Spectramax Plus plate reader. AP hemolysis in each well was calculated relative to the activity of the NHS reference sample formulas as follows: Hemolysis (%)=((Hm−Bk)−(Sp−Bf))/((NH−BkNH)−(Sp−Bf))×100%
where Hm=A405 in the hemolysis well, Bk=A405 in the corresponding background well, Sp=mean A405 in the spontaneous hemolysis wells, Bf=mean A405 in the buffer alone wells, NH=mean A405 in the reference NHS wells, and BkNH=mean A405 in the corresponding background wells.
The PK-PD relationship was evaluated using time-matched plasma Compound 1 concentrations and serum AP inhibition values by non-linear regression with GraphPad Prism (La Jolla, CA) using the following two models: • 1. The simple Emax model to determine the 50% effective concentration (EC50): Y=E0+Emax×X/(EC50+X) where X=plasma Compound 1 concentration, Y=percent inhibition in the corresponding serum sample, E0=0% inhibition (pre-dose AP activity), and Emax=100% inhibition. • 2. The four-parameter sigmoidal model to determine EC50 and the 90% effective concentration (EC90): Y=E0+(Emax−E0)/(1+10^((Log EC50−X)×HillSlope)) where X, Y, E0, and Emax are defined as above (Emax model) and HillSlope=the slope factor or Hill slope. Pharmacodynamic and Pharmacokinetic Results AP Activity Measured with AP Hemolysis
A multiple ascending dose (MAD) study of Compound 1 with two additional single-dose cohorts was also completed. […] Secondary objectives included evaluation of the pharmacokinetic (PK) profile and the relationship between Compound 1 PK and pharmacodynamic (PD) characteristics, that is, the inhibition of complement alternative pathway (AP) activity (PK/PD). In the MAD study, multiple-dose pharmacokinetics and pharmacodynamics of Compound 1 were evaluated in four dose groups administered Compound 1 (40, 80, 120 and 200 mg BID) in the fasted state for 14-days (Table 3). Eight subjects received active drug in each group; eight subjects received placebo in the first dose group (40 mg) and two subjects received placebo in each of the other three dose groups. Two additional cohorts were administered Compound 1 at single doses of 240 mg (fasted subjects) and 120 mg (fed subjects) (Table 3). The two single-dose cohorts each comprised six subjects receiving active drug and two subjects receiving placebo. […]

SMILES	diurnal metabolic pattern [1]	IC90 [2]
CC(=O)c1nn(CC(=O)N2C[C@H](F)C[C@H]2C(=O)Nc2cccc(Br)n2)c2ccc(-c3cnc(C)nc3)cc12 [Compound 2, (2S,4R)-1-(2-(3-acetyl-5-(2-methylpyrimidin-5-yl)-1H-indazol-1-yl)acetyl)-N-(6-bromopyridin-2-yl)-4-fluoropyrrolidine-2-carboxamide]	does not exhibit a diurnal metabolic pattern	
CC(=O)c1nn(CC(=O)N2C[C@H](F)C[C@H]2C(=O)Nc2cccc(Br)n2)c2ccc(-c3cnc(C)nc3)cc12 [Danicopan, reference compound]		0.235 µg/mL (≈ 0.405 µM)
